The subject of one data set is Hela cancer cell line. Kind of data set: MTT cytotoxicity assay, cervical cancer Hela. The class given is cell-based. The conditions noted are these: Homo sapiens, mean ± SD of three experiments. The procedure: (§1) The cytotoxicity of compounds 9a–h and 14a–h against three cell lines, namely, cervical cancer Hela, breast cancer MCF7, and colon HCT-116, compared with doxorubicin as a reference compound was performed using MTT assay. The cytotoxic concentration (IC50 in µM) is illustrated in Table 1.
(§2) Standard MTT colorimetric assay was applied to test the IC50 of compounds 9a–h and 14a–h against three cell lines, namely, cervical cancer Hela, breast cancer MCF7, and colon HCT-116, compared with doxorubicin as a reference compound with the typical reported methodology of MTT colorimetric assay.
For orientation: Tetrazolium assays rely on reduction of a dye to a coloured formazan, in cell work by metabolically active cells.

The subject of another data set is MCF7 cancer cell line. The experiment in a line: MTT cytotoxicity assay, breast cancer MCF7. In kind it is cell-based. The conditions noted are these: Homo sapiens, mean ± SD of three experiments. The procedure:
as §1, §2

Another data set relates to HCT-116 cancer cell line. Kind of data set: MTT cytotoxicity assay, colon HCT-116. The class given is cell-based. The conditions noted are these: Homo sapiens, mean ± SD of three experiments, read-out: IC50 HCT116. On the procedure:
as §1, §2

A short description of data set [1]: MTT cytotoxicity on normal cell line WI-38. The class given is cell-based. The note with it: human, WI-38 normal cells, MTT assay, mean ± SD of three experiments, read-out: In Vitro Cytotoxicity on WI-38 (IC50).
Data set [2] deals with Hela cells. Kind of data set: Cell cycle analysis (PI flow cytometry), Hela. The class given is cell-based. The procedure:
Cell cycle arrest of cervical cancer cells Hela, breast cancer cells MCF7, and colon cancer cells HCT-116 were assessed for compounds 9a and 14g at their IC50.
A general note: In flow cytometry, cells or beads pass a laser one at a time.

In data set [3] the test system is Hela cells. Kind of data set: Annexin V/PI apoptosis assay, Hela. The class given is cell-based. The note with it: IC50 concentration, 24 h. The procedure:
An apoptotic assay using Annexin V/PI analysis for compounds 9a and 14g is evaluated. Compound 9a induced a significant level of early and late apoptosis (total = 42.19) in the Hela cell line when compared with the control cells (Table 3, Figure 5 and Figure 6).

The target in another data set is T1, CDK2 (Homo sapiens, UniProt P24941).
T1 construct: purchased BPS Bioscience
The experiment in a line: In vitro CDK2 enzyme inhibition assay (BPS Bioscience kit, chemiluminescence). In kind it is biochemical. On the procedure: (§3) The CDK in vitro inhibitory activity of 9a–h and 14a–h toward CDK2 and CDK9 was performed using CDK Assay Kit (BPS Bioscience, USA) at different dilutions of 30, 10, 3, 1, 0.3, 0.1, 0.03, and 0.01 µM, measuring the chemiluminescence using BioTek™ Synergy2 Microplate Reader (BioTek, Santa Clara, CA, USA).

The target in the next data set is T2, CDK9 (Homo sapiens, UniProt P50750).
T2 construct: purchased BPS Bioscience
The experiment in a line: In vitro CDK9 enzyme inhibition assay (BPS Bioscience kit, chemiluminescence). The class given is biochemical. On the procedure: as §3

“Also recorded” adds a separate entry of the source. Bounds are passed on as bounds.

T2 sequence (P50750 whole entry): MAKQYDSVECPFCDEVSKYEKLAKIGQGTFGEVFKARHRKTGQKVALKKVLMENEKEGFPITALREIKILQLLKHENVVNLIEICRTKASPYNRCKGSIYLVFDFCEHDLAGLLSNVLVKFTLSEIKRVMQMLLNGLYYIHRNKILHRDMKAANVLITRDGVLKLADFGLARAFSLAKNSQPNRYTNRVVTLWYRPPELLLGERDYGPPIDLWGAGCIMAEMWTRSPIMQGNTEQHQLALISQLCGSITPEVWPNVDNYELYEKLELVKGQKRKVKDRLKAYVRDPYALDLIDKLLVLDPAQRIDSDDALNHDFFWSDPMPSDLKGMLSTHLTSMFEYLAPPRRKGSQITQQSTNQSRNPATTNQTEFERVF
T2 sequence (O60563 whole entry partner): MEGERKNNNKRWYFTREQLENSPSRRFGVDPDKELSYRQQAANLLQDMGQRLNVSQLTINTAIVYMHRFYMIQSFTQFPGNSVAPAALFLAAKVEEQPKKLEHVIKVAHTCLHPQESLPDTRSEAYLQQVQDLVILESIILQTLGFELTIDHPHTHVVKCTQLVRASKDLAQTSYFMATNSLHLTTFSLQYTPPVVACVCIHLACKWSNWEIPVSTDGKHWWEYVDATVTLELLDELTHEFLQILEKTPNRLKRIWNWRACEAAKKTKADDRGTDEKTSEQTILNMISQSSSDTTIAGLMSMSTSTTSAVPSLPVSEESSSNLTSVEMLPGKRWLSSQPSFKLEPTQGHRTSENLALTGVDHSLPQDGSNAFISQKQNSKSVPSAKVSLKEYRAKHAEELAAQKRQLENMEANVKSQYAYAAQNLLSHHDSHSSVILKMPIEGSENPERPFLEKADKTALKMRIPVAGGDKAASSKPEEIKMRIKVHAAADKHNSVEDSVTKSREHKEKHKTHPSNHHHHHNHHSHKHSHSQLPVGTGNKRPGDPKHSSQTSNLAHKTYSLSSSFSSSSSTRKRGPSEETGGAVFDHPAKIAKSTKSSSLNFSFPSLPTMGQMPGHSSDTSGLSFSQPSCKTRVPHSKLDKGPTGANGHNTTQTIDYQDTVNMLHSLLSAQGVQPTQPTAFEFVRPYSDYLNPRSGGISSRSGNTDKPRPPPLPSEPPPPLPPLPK

For `COc1ccc(-c2nn(-c3ccccc3)c3nc(-c4ccccc4)c(C#N)c(-c4ccc(C)cc4)c23)cc1` [Compound 14b, 3-(4-Methoxyphenyl)-1,6-diphenyl-4-(p-tolyl)-1H-pyrazolo[3,4-b]pyridine-5-carbonitrile], the melting point fell in the range of 203 to 205 °C. For the same molecule, the IC50 with Hela cancer cell line was determined as 21 ± 2.18 µM. The molecule also displayed an IC50 in the data set with MCF7 cancer cell line of 21.4 ± 2.05 µM. Also, the IC50 in the data set on HCT-116 cancer cell line was found to be 36.3 ± 1.83 µM.

As for `COc1ccc(-c2nn(-c3ccccc3)c3nc(-c4ccccc4)c(C#N)c(-c4ccc(OC)c(OC)c4)c23)cc1` [Compound 14h, 4-(3,4-Dimethoxyphenyl)-3-(4-methoxyphenyl)-1,6-diphenyl-1H-pyrazolo[3,4-b]pyridine-5-carbonitrile], the melting point is 212 to 214 °C. Also, in the data set with Hela cancer cell line, the IC50 was 31.7 ± 2.48 µM. Also, the 50% inhibitory concentration (IC50) in the data set on MCF7 cancer cell line amounted to 38.1 ± 2.76 µM. For the same molecule, the IC50 in the data set on HCT-116 cancer cell line was 3.69 ± 0.11 µM.

In turn, `COc1ccc(-c2nn(-c3ccccc3)c3nc(-c4ccccc4)c(C#N)c(-c4ccccc4)c23)cc1` [Compound 14a, 3-(4-Methoxyphenyl)-1,4,6-triphenyl-1H-pyrazolo[3,4-b]pyridine-5-carbonitrile] had a melting point of 229 to 231 °C. Also, the IC50 with Hela cancer cell line came to 23.1 ± 1.63 µM. In addition, in the data set with MCF7 cancer cell line, half-maximal inhibition (IC50) was put at 20.7 ± 1.73 µM. For the same molecule, the IC50 with HCT-116 cancer cell line was 25.8 ± 2.58 µM.

On to `COc1ccc(-c2nn(-c3ccccc3)c3nccc(-c4ccc(Cl)cc4)c23)cc1` [Compound 9e, 4-(4-Chlorophenyl)-3-(4-methoxyphenyl)-1-phenyl-1H-pyrazolo[3,4-b]pyridine], for which the melting point is 210 to 212 °C. The same molecule registered an IC50 with Hela cancer cell line of 48.5 ± 4.2 µM. Further, the IC50 with MCF7 cancer cell line was found to be 20.3 ± 3.21 µM. Moreover, in the data set with HCT-116 cancer cell line, the IC50 came to 16.6 ± 1.34 µM.

The molecule `COc1ccc(-c2nn(-c3ccccc3)c3nccc(-c4ccc(OC)c(OC)c4)c23)cc1` [Compound 9h, 4-(3,4-Dimethoxyphenyl)-3-(4-methoxyphenyl)-1-phenyl-1H-pyrazolo[3,4-b]pyridine] yielded a melting point of 165 to 167 °C. In the data set with Hela cancer cell line, this molecule showed an IC50 of 7.92 ± 1.11 µM. In the data set with MCF7 cancer cell line, the IC50 amounted to 9.7 ± 1 µM. Moreover, the half-maximal inhibitory concentration (IC50) with HCT-116 cancer cell line was 9.69 ± 0.56 µM.

In the case of `COc1ccc(-c2nn(-c3ccccc3)c3nccc(-c4ccc(C)cc4)c23)cc1` [Compound 9b, 3-(4-Methoxyphenyl)-1-phenyl-4-(p-tolyl)-1H-pyrazolo[3,4-b]pyridine], the melting point fell in the range of 186 to 188 °C. The molecule further returned an IC50 with Hela cancer cell line of 14 ± 1.25 µM. This molecule also showed an IC50 in the data set on MCF7 cancer cell line of 22.4 ± 3.18 µM. Besides, the IC50 in the data set with HCT-116 cancer cell line came to 18 ± 1.16 µM.

`COc1ccc(-c2nn(-c3ccccc3)c3nc(-c4ccccc4)c(C#N)c(-c4ccc(Br)cc4)c23)cc1` [Compound 14e, 4-(4-Bromophenyl)-3-(4-methoxyphenyl)-1,6-diphenyl-1H-pyrazolo[3,4-b]pyridine-5-carbonitrile] registered a melting point of 221 to 223 °C. The same molecule showed an IC50 with Hela cancer cell line of 37.3 ± 3.32 µM. In the data set with MCF7 cancer cell line, this molecule gave an IC50 of 34.4 ± 2.59 µM. Also, the IC50 in the data set on HCT-116 cancer cell line worked out at 37.8 ± 2.63 µM.

With `COc1ccc(-c2nn(-c3ccccc3)c3nccc(-c4ccc(Br)cc4)c23)cc1` [Compound 9f, 4-(4-Bromophenyl)-3-(4-methoxyphenyl)-1-phenyl-1H-pyrazolo[3,4-b]pyridine], the melting point lay in the range of 217 to 219 °C. Besides, half-maximal inhibition with Hela cancer cell line (IC50) was put at 20.4 ± 1.74 µM. The same molecule yielded an IC50 in the data set on MCF7 cancer cell line of 35.6 ± 4.64 µM. Also, the IC50 in the data set on HCT-116 cancer cell line was found to be 16.8 ± 0.76 µM.

In the case of `COc1ccc(-c2nn(-c3ccccc3)c3nccc(-c4ccc([N+](=O)[O-])cc4)c23)cc1` [Compound 9g, 3-(4-Methoxyphenyl)-4-(4-nitrophenyl)-1-phenyl-1H-pyrazolo[3,4-b]pyridine], the melting point is > 300 °C. The IC50 with Hela cancer cell line came to 28.3 ± 4.23 µM. In the data set with MCF7 cancer cell line, this molecule came in with an IC50 of 26.3 ± 2.85 µM. In addition, the IC50 with HCT-116 cancer cell line was 40 ± 3.19 µM.

`COc1ccc(-c2nn(-c3ccccc3)c3nc(-c4ccccc4)c(C#N)c(-c4ccc(N(C)C)cc4)c23)cc1` [Compound 14f, 4-(4-(Dimethylamino)phenyl)-3-(4-methoxyphenyl)-1,6-diphenyl-1H-pyrazolo[3,4-b]pyridine-5-carbonitrile] gave a melting point of 230 to 232 °C. In the data set with Hela cancer cell line, the IC50 came out at 46.1 ± 3.7 µM. Also, the IC50 in the data set on MCF7 cancer cell line is 19.6 ± 1.26 µM. Further, the IC50 in the data set with HCT-116 cancer cell line stood at 40 ± 4.32 µM.

For `COc1ccc(-c2ccnc3c2c(-c2ccc(OC)cc2)nn3-c2ccccc2)cc1` [Compound 9c, 3,4-Bis(4-methoxyphenyl)-1-phenyl-1H-pyrazolo[3,4-b]pyridine], the melting point lay in the range of 198 to 200 °C. This molecule came in with an IC50 with Hela cancer cell line of 26.6 ± 3.37 µM. Besides, in the data set with MCF7 cancer cell line, the IC50 came to 59 ± 5.52 µM. For the same molecule, the IC50 in the data set on HCT-116 cancer cell line came out at 43.2 ± 3.26 µM.

With `COc1ccc(-c2nn(-c3ccccc3)c3nc(-c4ccccc4)c(C#N)c(-c4ccc(OC)cc4)c23)cc1` [Compound 14c, 3,4-Bis(4-methoxyphenyl)-1,6-diphenyl-1H-pyrazolo[3,4-b]pyridine-5-carbonitrile], the melting point was 207 to 209 °C. The same molecule registered an IC50 in the data set on Hela cancer cell line of 41.3 ± 2.79 µM. Besides, half-maximal inhibition in the data set on MCF7 cancer cell line (IC50) was put at 39.3 ± 3.74 µM. Also, the IC50 in the data set with HCT-116 cancer cell line was 36.7 ± 2.02 µM.

`COc1ccc(-c2nn(-c3ccccc3)c3nccc(-c4ccccc4)c23)cc1` [Compound 9a, 3-(4-Methoxyphenyl)-1,4-diphenyl-1H-pyrazolo[3,4-b]pyridine] yielded a melting point of 161 to 163 °C. Further, in the data set on Hela cancer cell line, the IC50 is 2.59 ± 0.16 µM. The molecule further came in with a concentration for half-maximal inhibition (IC50) in the data set on MCF7 cancer cell line of 6.39 ± 0.46 µM. Also, the IC50 in the data set with HCT-116 cancer cell line is 15.3 ± 1.46 µM. The IC50 in data set [1] turned out to be 26.4 ± 3.23 µM. For the same molecule, the “Cell cycle Comment” value in the data set on Hela cells [2] (compound at its IC50) is on record as “cell cycle arrest at the S phase; also recorded: cell growth arrest@ S”. In addition, the “DNA Content %G2/M” value with Hela cells [2] (compound at its IC50, control 14.5) is on record as 11.36%. In addition, the “DNA Content %S” value in the data set on Hela cells [2] (compound at its IC50, control 24.11) was determined as 29.54%. Moreover, the “DNA Content %G0-G1” value with Hela cells [2] (compound at its IC50, control 61.39) was determined as 59.1%. In addition, the “cell accumulation at S phase relative to control” value with Hela cells [2] (control 24.11%) was found to be 1.23 fold. The “Apoptosis Late” value with Hela cells [3] (control 0.12) stood at 12.82%. For the same molecule, in the data set on Hela cells [3] (control 0.49), the “Apoptosis Early” value is given as 23.21%. The molecule further gave a Necrosis in the data set on Hela cells [3] (control 1.72) of 6.16%. Besides, the “Apoptosis Total” value in the data set on Hela cells [3] (total equals early + late + necrosis, control 2.33, % printed in Figure 6 only) amounted to 42.19%. Besides, the IC50 on CDK2 was determined as 1.63 ± 0.009 µM. Besides, the IC50 on CDK9 was 0.262 ± 0.013 µM.

Regarding `COc1cccc2c1C(=O)c1c(O)c3c(c(O)c1C2=O)C[C@@](O)(C(=O)CO)C[C@@H]3O[C@H]1C[C@H](N)[C@H](O)[C@H](C)O1` [Doxorubicin, reference compound], the IC50 is 2.35 ± 0.08 µM with Hela cancer cell line, 4.57 ± 0.28 µM with MCF7 cancer cell line, 2.11 ± 0.2 µM with HCT-116 cancer cell line and 15.6 ± 0.37 µM in [1].

As to `COc1ccc(-c2nn(-c3ccccc3)c3nc(-c4ccccc4)c(C#N)c(-c4ccc(Cl)cc4)c23)cc1` [Compound 14d, 4-(4-Chlorophenyl)-3-(4-methoxyphenyl)-1,6-diphenyl-1H-pyrazolo[3,4-b]pyridine-5-carbonitrile], the melting point is 258 to 260 °C. Besides, inhibition with Hela cancer cell line was half-maximal at 21.1 ± 2.03 µM (IC50). This molecule yielded an IC50 in the data set on MCF7 cancer cell line of 37.2 ± 2.48 µM. For the same molecule, the IC50 in the data set on HCT-116 cancer cell line came out at 31.1 ± 3.54 µM.

As for `COc1ccc(-c2nn(-c3ccccc3)c3nccc(-c4ccc(F)cc4)c23)cc1` [Compound 9d, 4-(4-Fluorophenyl)-3-(4-methoxyphenyl)-1-phenyl-1H-pyrazolo[3,4-b]pyridine], the melting point lay within 171 to 173 °C. In addition, in the data set with Hela cancer cell line, 19.6 ± 1.68 µM corresponded to half-maximal inhibition (IC50). This molecule also had an IC50 in the data set on MCF7 cancer cell line of 13 ± 1.33 µM. Besides, in the data set with HCT-116 cancer cell line, the IC50 came to 17.5 ± 0.98 µM.

For orientation: IC50 means the concentration at which inhibition is half-maximal. In general, melting point refers to the temperature of the solid-liquid transition.

For the origin of these results see publication PMC10490123, “Synthesis and In Vitro Anticancer Activity of Novel 4-Aryl-3-(4-methoxyphenyl)-1-phenyl-1H-pyrazolo[3,4-b]pyridines Arrest Cell Cycle and Induce Cell Apoptosis by Inhibiting CDK2 and/or CDK9” (Molecules, 2023).
